The values that follow come from patent publication US11744861B2, “Compositions and methods for selective elimination and replacement of hematopoietic stem cells” (Poseida Therapeutics, Inc., priority 2017, dated 2023).

For test [1], the system named is CARTyrin-expressing cells. Nature of the test: in vitro efficacy of iC9 safety switch with AP1903 (relative viability, live cells per bead events). Format: cell-based, Human. As to the method: FIGS. 2A-2B is a series of graphs depicting results of evaluating the in vitro efficacy of an inducible proapoptotic polypeptide (iC9 safety switch) of the disclosure using the exemplary induction agent AP1903. Cells expressing a CARTyrin of the disclosure were A) thawed and rested overnight or B) activated using ImmunoCult™ Human CD3/CD28/CD2 T cell Activator reagent for 5 days were treated with AP1903 for the indicated length of time and concentrations. All data points were collected in triplicate and relative viability determined by dividing the number of live cells in the treatment group by the average number of live cells in the no treatment group per 1,500 bead events collected. Greater than 80% of the non-activated CARTyrin-expressing cells were eliminated from the culture at 24 hours across all dose levels tested (FIG. 1). There was no observable difference between the 24 hour and 48 hour time point in the non-activated cells. In the activated CARTyrin-expressing cells however, both a dose response as well as temporal response were observed. At 12 hours post AP1903 administration, >65% of the cells were killed by concentrations as low as 1 nM. […] Expression of the CARTyrin is be increased upon activation of the cells, and provided the vector design; the expression of iC9 could also increase. Therefore, an activated cell may express higher levels of iC9 making it more sensitive to AP1903. In many embodiments, the activated cells will be the target if and when employing the safety switch.

The test system of test [2] is Human pan T-cells with piggyBac integrated iC9. The test can be described thus: iC9 safety switch test, viability by flow cytometry using 7-AAD. The following applies: iC9-containing modified T cells; 24 hours incubation. It is filed as cell-based. From the text: Human pan T-cells were nucleofected using an Amaxa 4D nucleofector with one of four piggyBac transposons. Modified T cells receiving the “mock” condition were nucleofected with an empty piggyBac transposon. Modified T cells received either a piggyBac […] containing a therapeutic agent alone (a sequence encoding a CARTyrin) or a piggyBac […] containing an integrated iC9 sequence and a therapeutic agent (a sequence encoding a CARTyrin). To test the iC9 safety switch, each of the four modified T cells were incubated for 24 hours with 0, 0.1 nM, 1 nM, 10 nM, 100 nM or 1000 nM AP1903 (an induction agent for […]). Viability was assessed by flow cytometry using 7-aminoactinomycin D (7-AAD), a fluorescent intercalator, as a marker for cells undergoing apoptosis. Cell viability was assessed at day 12 (see FIG. 2). […] Moreover, cell viability was assessed at day 19 (see FIG. 3). […] A quantification of the aggregated results was performed and is provided in FIG. 4, showing the significant impact of the iC9 safety switch on the percent cell viability as a function of the concentration of the induction agent (AP1903) of the iC9 switch for each modified cell type at either day 12 (FIG. 2 and left graph) or day 19 (FIG. 3 and right graph). […] Furthermore, the iC9 safety switch may be functionally expressed as part of a tricistronic vector.
A general note: Flow cytometry measures light scatter and fluorescence of single cells or particles in a stream.

On to `CC[C@H](C(=O)N1CCCC[C@H]1C(=O)O[C@H](CCc1ccc(OC)c(OC)c1)c1cccc(OCC(=O)NCCNC(=O)COc2cccc([C@@H](CCc3ccc(OC)c(OC)c3)OC(=O)[C@@H]3CCCCN3C(=O)[C@@H](CC)c3cc(OC)c(OC)c(OC)c3)c2)c1)c1cc(OC)c(OC)c(OC)c1` [AP1903], for which the cells killed is more than 65% in test [1] (activated CARTyrin-expressing cells, 12 hours post AP1903, concentrations as low as 1 nM) and more than 95% in test [1] (activated cells, 48 hours). The “cells eliminated from the culture” value in test [1] (non-activated CARTyrin-expressing cells, 24 hours, all dose levels tested) is recorded as “Greater than 80%”. Further, the “concentration at which apoptosis is induced (lowest of the study)” value in test [2] came out at 0.1 nM.
